Values joined by “and” are separate entries in the source; they are usually repeats but may differ in a detail not shown here. Equal values may be shown once.
Tests used:
[1] = Mass balance: excretion of radioactivity in urine and feces after oral [14C]-tepotinib (part A); type: in vivo, human healthy male volunteers
Method: (§1) Participants were hospitalized from day 1 to day 16 of the study, and further assessed on days 19, 22, and 25 (trial end). […] Pre-dose feces and urine samples were collected on day 1 and day 2, respectively. Urine was collected at 4- to 12-h intervals on day 1 and every 24 h thereafter up to day 16. Feces were collected every 24 h up to day 16. Provision was made to collect further samples up to day 39 if >1% of the administered dose was detectable in the total (urine and feces) excreta per day on two consecutive measurements.
Total radioactivity in blood, plasma, urine, and feces samples, and quick counts in urine and feces samples were determined at the bioanalytical laboratory of PRA (Assen, The Netherlands) using liquid scintillation counting (LSC). Scintillation cocktail Ultima Gold™ (5 mL; Perkin Elmar, Waltham, Massachusetts, USA) was directly spiked into 250 μL plasma and 1000 μL urine samples, respectively, whereas 300 μL aliquots of blood samples were solubilized and decolorized before adding 18 mL of the scintillation cocktail prior to LSC. Feces samples were (quantitatively) homogenized with one or two weight equivalents of water, and an accurately weighted aliquot of approximately 500 mg of the homogenate was dried at 50 °C for at least 3 h. After addition of 100 μL combustion aid, the dried samples were combusted in a sample oxidizer model 307 (Perkin Elmer, Waltham, Massachusetts, USA) using 7 mL CarboSorb® E as an absorber agent for carbon dioxide. At the end of the combustion cycle, the absorber was mixed with 13 mL of the scintillant PermaFluor® E. All scintillation counting using either low-level or normal count modes was carried out in duplicate using a Tri-Carb 3100 TR liquid scintillation analyzer (Perkin Elmer, Waltham, Massachusetts, USA), in compliance with analytical procedures validated by the PRA.
(§2) The maximum plasma concentration (Cmax) and time to reach maximum concentration (tmax) were derived directly from the plasma concentration–time data. Lag time (tlag) was the time prior to the first measurable (non-zero) concentration. The area under the plasma concentration–time curve from 0 to t (last measurable concentration; AUC0–t) was calculated using a mixed log–linear trapezoidal method. Area under the plasma concentration–time curve until the last sampling time (AUCall), which corresponds to AUC0–240 h within the observation period, was used for metabolite calculations. Amounts excreted in urine, feces, and total (urine + feces) were calculated as the sum of amounts (concentration multiplied by volume) for each collection from time 0 to time t. The terminal rate constant (λz) was used to estimate the terminal half-life (t½) (ln 2/λz), and the area under the concentration–time curve from time 0 to infinity (AUC0–∞). Total body clearance (CL) and apparent body clearance (CL/f) were determined by dose/AUC0–∞, and total volume of distribution (Vz) and apparent volume of distribution (Vz/f) were calculated by dose/(AUC0–∞*λz) after IV and oral administration, respectively. Volume of distribution of the central compartment (Vc) was derived by dividing the dose by the initial drug plasma concentration after IV administration. Absolute bioavailability was calculated as F = (AUCoral/doseoral)/(AUCIV/doseIV) × 100. The ratios (%) AUCtepotinib or metabolite/AUCtotal radioactivity were calculated as a percentage of the molar AUCs.

[2] = Metabolite profiling and identification in plasma, urine and feces (part A); type: in vivo, human healthy male volunteers; details: oral part A
Method: as §1
Metabolite profiling and structure elucidation in plasma, urine, and feces were performed at the Institute of Drug Metabolism and Pharmacokinetics, Merck KGaA, Grafing, Germany, using a radiometric UPLC method coupled to a high-resolution MS. For urine and feces, metabolites were identified in a single pooled sample per matrix and subject (urine pool of 4–120 h and feces pool of 0–192 h), that covered at least 90% of the total radioactivity of the respective matrix excreted. Intervals with low radioactivity were not used for the generation of the pooled samples to avoid dilution, and to increase the signal-to-noise ratio of the respective chromatograms.
The metabolite structure elucidation was performed using the linear trap quadrupole Orbitrap XL hybrid Fourier transform (FT) MS (Thermo Scientific, Dreieich, Germany) coupled to a Waters Acquity UPLC system. Full-scan FT spectra were acquired for measurement of the masses of molecular ions of parent and metabolites. MS^2 fragmentation spectra were acquired after high-energy collisional dissociation of the appropriate molecular ions. Allocation and confirmation of the proposed metabolites to the radioactive peaks were performed using an API4000 QTrap (AB Sciex, Darmstadt, Germany) MS with simultaneous splitting using a fraction collection system (CTC HTS PAL Fraction Collector, Axel Semrau, Sprockhövel, Germany), and offline radioactive measurement using a Topcount NXT® microplate scintillation counter (PerkinElmer, Rodgau, Germany).
as §2

[3] = Safety assessment (TEAEs, NCI-CTCAE v4.0); type: in vivo, human healthy male volunteers
Method: Treatment-emergent adverse events (TEAEs), changes in laboratory tests, ECG, vital signs, and physical examinations were assessed and graded using the National Cancer Institute Common Terminology Criteria for Adverse Events (NCI-CTCAE) version 4.0. All safety endpoints across both parts of the study were analyzed descriptively.

P-glycoprotein = tested on: P-glycoprotein; parameters: method as in earlier work; details: cited from earlier work
[4] = parameters: method as in PMID 31822497; details: patients with solid tumors; cited from earlier work
[5] = geometric mean of n=6, % of total radioactive dose, oral part A, listed as [^14C]-tepotinib
[6] = individual subjects 1–6, % of total radioactive dose, single oral 498 mg tepotinib + 2.67 MBq [14C]-tepotinib
[7] = maximum of n=6, % of total radioactive dose, oral part A
[8] = median of n=6, % of total radioactive dose, oral part A, listed as [^14C]-tepotinib
[9] = minimum of n=6, % of total radioactive dose, oral part A
[10] = range of n=6, % of oral [14C]-tepotinib dose

Compound: CN1CCC(COc2cnc(-c3cccc(Cn4nc(-c5cccc(C#N)c5)ccc4=O)c3)nc2)CC1 [Tepotinib]
- time up to which radioactivity was observed in urine ([1]; after dosing, below LLOQ at 312 and 336 h in two participants): up to 360 h
- time of first radioactivity detected in feces ([1]; after oral dose, part A): 24 to 48 h
- time within which radioactivity was observed in urine ([1]; first collection period, part A): ≤ 4 h
- Ae0–t total, Geometric mean ([1]; geometric mean of n=6, % of total radioactive dose, oral part A): 91.90%
- Ae0–t feces, Geometric mean [1, 5]: 77.9% and 77.87%
- Ae0–t urine, Geometric mean [1, 5]: 13.6% and 13.61%
- radioactivity not recovered ([1]; geometric mean, pie chart Fig. 1, oral part A): 8.5%
- Ae0–t feces [1, 6]: 79.48% and 77.92% and 69.40% and 76.89% and 82.53% and 81.76%
- Ae0–t total (urine + feces) [1, 6]: 88.28% and 91.60% and 87.12% and 93.36% and 94.46% and 96.93%
- Ae0–t urine [1, 6]: 8.80% and 13.68% and 17.72% and 16.47% and 11.93% and 15.17%
- Ae0–t feces, Max [1, 7]: 82.53%
- Ae0–t total, Max [1, 7]: 96.93%
- Ae0–t urine, Max [1, 7]: 17.72%
- Ae0–t feces, Median [1, 8]: 78.7%
- Ae0–t total, Median [1, 8]: 92.5% and 92.48%
- Ae0–t urine, Median [1, 8]: 14.4% and 14.43%
- Ae0–t feces, Min [1, 9]: 69.40%
- Ae0–t total, Min [1, 9]: 87.12%
- Ae0–t urine, Min [1, 9]: 8.80%
- time up to which excretion of radioactivity in feces was noted ([1]; post-dose, all participants, part A): up to 360 h
- radioactivity excreted in feces, range [1, 10]: 69.4–82.5%
- radioactivity excreted in urine, range [1, 10]: 8.8–17.7%
- [14C]-tepotinib dose recovered in excreta per day ([1]; two consecutive measurements, days 15 and 16, all subjects): < 1%
- % of total radioactive administered dose excreted in feces or urine (excreta) ([2]; feces plus urine): 52%
- % of total administered radioactive dose excreted in feces ([2]; feces pool 0–192 h): 45%
- % of AUCall of total 14C-radioactivity in plasma ([2]; plasma, AUCall = AUC0–240 h, molar AUC ratio): 55%
- % of total administered radioactive dose excreted in urine ([2]; urine pool 4–120 h): 7%
- number of TEAEs of grade one severity ([3]; NCI-CTCAE, of 19 TEAEs): 17
- deaths, serious or other significant adverse events ([3]; both parts): neither deaths, serious adverse events, nor other significant adverse events were reported
- volunteers who experienced TEAEs ([3]; both parts, single 500 mg dose): 75%
- healthy volunteers who experienced TEAEs ([3]; both parts, single oral 500 mg): Nine of 12
- number of TEAEs ([3]; in nine of 12 volunteers): 19
- number of TEAEs judged treatment related ([3]; of 19 TEAEs): Eight
- tolerability ([3]; single oral dose of 500 mg, healthy volunteers): well tolerated
- P-glycoprotein substrate status (P-glycoprotein): substrate of the drug efflux transporter P-glycoprotein
- maximum tolerated dose (not reached at doses administered) [4]: > 1400 mg/day
